Values of other authors in patent publication US8841476B2, “Preparation of crystalline ezatiostat hydrochloride ansolvate form D” (Telik, Inc., priority 2010, dated 2014).
Read-outs that look alike come from different tables or passages of the source.

What was measured:
[1] = system: HL-60 promyelocytic leukemia cells; details: in vitro
[2] = in vitro
[3] = in vivo
[4] = system: hematopoietic progenitor cells in normal human peripheral blood
[5] = ezatiostat hydrochloride in a liposomal injectable formulation, MDS trial, Raza et al. 2009

In the case of `CCOC(=O)[C@@H](N)CCC(=O)N[C@@H](CSCc1ccccc1)C(=O)N[C@@H](C(=O)OCC)c1ccccc1` [Ezatiostat], the “differentiation of HL-60 promyelocytic leukemia cells” value [1] is listed as “induce the differentiation”, the “potentiation of the activity of cytotoxic agents” value [2] is listed as “potentiate the activity of cytotoxic agents” and the “potentiation of the activity of cytotoxic agents” value [3] is listed as “potentiate the activity of cytotoxic agents”. The “colony formation of hematopoietic progenitor cells” value [4] was “stimulate colony formation of all three lineages”, the “white blood cell production” value (animals in which white blood cells were depleted by treatment with cisplatin or fluorouracil) was “increase white blood cell production” and the “white blood cell production” value (normal animals) was “increase white blood cell production”. For the same compound, the hematologic improvement [5] was “multi-lineage hematologic improvement” and the tolerability [5] was “well tolerated”.
